# According to patent US20260049077A1, “Neurotrophic Receptor Tyrosine Kinase (NTRK) Inhibitors and Methods Using Same” (Baylor College of Medicine, priority 2022, published 2026):
# “And” between values parts separate entries of the source, which are not always exact repeats. Identical values can stand only once. Like-named read-outs stand apart in the source and are kept apart here.
# Experiments:
# NTRK2 [1] = biological target: T1, NTRK2 (Homo sapiens (Human), UniProt Q16620); experiment: NTRK2 inhibition (IC50); type: biochemical
# T1 sequence (Q16620 32-822): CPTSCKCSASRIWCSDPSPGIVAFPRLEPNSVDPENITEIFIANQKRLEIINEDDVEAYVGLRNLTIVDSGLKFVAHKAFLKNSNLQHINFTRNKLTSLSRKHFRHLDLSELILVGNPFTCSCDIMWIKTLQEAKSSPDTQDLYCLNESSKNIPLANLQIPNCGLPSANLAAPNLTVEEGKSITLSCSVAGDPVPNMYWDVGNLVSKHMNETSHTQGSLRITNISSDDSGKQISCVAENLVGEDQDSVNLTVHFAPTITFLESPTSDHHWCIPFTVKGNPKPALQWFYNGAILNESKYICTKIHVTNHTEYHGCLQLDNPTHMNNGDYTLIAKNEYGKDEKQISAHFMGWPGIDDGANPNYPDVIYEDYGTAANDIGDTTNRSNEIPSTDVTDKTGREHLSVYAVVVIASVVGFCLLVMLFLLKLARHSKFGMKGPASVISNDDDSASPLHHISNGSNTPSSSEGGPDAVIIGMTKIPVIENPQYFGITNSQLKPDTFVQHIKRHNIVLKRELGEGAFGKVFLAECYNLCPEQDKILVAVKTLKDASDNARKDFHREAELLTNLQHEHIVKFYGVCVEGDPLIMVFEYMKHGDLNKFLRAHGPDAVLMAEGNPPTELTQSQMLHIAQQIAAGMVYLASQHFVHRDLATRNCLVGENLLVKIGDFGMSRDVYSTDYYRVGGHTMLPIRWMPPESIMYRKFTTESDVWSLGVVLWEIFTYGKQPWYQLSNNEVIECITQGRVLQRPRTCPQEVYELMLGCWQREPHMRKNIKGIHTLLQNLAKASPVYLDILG
# CDKL1 = CDKL1 (Homo sapiens (Human), UniProt Q00532); experiment: Promega K192 cell-based NanoBRET kinase occupancy assay
# Method: (§1) Similarly, the selectivity of CDD-3031 for NTRK kinases was evaluated in a kinase occupancy assay (Promega K192 cell-based NanoBRET assay) using 192 kinases (Table 4).
# CLK1 = CLK1 (Homo sapiens (Human), UniProt P49759); experiment: as above
# Method: as §1
# CSNK1A1L = CSNK1A1L (Homo sapiens (Human), UniProt Q8N752); experiment: as above
# CSNK1A1L, sequence (Q8N752 whole entry): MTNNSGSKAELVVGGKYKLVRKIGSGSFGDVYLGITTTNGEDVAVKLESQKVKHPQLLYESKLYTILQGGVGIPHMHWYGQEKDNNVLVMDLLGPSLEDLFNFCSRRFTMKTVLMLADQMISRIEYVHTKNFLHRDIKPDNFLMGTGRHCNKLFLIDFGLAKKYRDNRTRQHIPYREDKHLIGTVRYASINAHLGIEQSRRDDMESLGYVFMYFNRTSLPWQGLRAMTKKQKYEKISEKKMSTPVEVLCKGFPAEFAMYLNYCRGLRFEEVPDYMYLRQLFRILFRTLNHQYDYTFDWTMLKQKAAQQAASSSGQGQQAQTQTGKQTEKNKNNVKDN
# Method: as §1
# DYRK1A = DYRK1A (Homo sapiens (Human), UniProt Q13627); experiment: as above
# Method: as §1
# FLT3 = FLT3 (Homo sapiens (Human), UniProt P36888); experiment: as above
# FLT3, sequence (P36888 27-993): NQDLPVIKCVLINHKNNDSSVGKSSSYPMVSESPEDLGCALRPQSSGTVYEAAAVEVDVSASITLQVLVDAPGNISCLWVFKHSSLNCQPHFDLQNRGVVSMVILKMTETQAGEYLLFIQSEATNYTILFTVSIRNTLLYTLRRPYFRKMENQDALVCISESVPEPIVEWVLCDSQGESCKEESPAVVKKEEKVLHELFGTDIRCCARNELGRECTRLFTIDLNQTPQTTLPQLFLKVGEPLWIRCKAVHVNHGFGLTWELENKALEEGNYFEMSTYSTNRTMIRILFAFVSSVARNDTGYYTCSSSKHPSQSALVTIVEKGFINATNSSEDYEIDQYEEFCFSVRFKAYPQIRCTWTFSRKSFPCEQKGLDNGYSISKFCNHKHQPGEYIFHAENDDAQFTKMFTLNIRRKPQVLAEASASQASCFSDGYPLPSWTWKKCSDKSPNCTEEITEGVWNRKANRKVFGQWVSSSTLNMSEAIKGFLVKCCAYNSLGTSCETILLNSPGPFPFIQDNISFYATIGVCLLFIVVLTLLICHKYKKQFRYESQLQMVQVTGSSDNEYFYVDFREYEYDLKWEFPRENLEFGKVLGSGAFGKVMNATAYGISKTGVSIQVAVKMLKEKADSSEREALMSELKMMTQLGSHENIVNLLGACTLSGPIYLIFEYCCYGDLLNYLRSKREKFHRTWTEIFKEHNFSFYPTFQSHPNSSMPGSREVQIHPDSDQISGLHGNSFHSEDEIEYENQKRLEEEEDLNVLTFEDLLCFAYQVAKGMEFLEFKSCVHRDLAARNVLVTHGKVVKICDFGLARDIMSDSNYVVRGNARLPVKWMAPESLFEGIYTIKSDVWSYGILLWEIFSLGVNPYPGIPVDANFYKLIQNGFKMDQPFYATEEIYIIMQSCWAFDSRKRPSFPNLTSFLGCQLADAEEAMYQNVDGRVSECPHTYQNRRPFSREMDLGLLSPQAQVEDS
# Method: as §1
# MAP3K19 = MAP3K19 (Homo sapiens (Human), UniProt Q56UN5); experiment: as above
# Method: as §1
# MKNK2 = MKNK2 (Homo sapiens (Human), UniProt Q9HBH9); experiment: as above
# Method: as §1
# MUSK = MUSK (Homo sapiens (Human), UniProt O15146); experiment: as above
# Method: as §1
# NTRK2 [2] = biological target: T1, NTRK2; experiment: as above
# Method: as §1
# SGK1 = SGK1 (Homo sapiens (Human), UniProt O00141); experiment: as above
# SGK1, sequence (O00141 whole entry): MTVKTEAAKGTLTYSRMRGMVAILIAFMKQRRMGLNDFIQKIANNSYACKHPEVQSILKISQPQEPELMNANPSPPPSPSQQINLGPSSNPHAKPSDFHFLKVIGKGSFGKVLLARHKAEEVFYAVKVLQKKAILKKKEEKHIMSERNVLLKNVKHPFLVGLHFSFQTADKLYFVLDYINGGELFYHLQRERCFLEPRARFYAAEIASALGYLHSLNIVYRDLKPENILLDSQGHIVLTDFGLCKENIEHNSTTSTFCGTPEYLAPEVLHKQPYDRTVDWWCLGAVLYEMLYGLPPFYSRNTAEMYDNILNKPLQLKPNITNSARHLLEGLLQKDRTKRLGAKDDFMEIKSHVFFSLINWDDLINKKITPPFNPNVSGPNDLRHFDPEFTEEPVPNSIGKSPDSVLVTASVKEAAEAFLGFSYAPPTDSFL
# Method: as §1
# STK36 = STK36 (Homo sapiens (Human), UniProt Q9NRP7); experiment: as above
# STK36, sequence (Q9NRP7 whole entry): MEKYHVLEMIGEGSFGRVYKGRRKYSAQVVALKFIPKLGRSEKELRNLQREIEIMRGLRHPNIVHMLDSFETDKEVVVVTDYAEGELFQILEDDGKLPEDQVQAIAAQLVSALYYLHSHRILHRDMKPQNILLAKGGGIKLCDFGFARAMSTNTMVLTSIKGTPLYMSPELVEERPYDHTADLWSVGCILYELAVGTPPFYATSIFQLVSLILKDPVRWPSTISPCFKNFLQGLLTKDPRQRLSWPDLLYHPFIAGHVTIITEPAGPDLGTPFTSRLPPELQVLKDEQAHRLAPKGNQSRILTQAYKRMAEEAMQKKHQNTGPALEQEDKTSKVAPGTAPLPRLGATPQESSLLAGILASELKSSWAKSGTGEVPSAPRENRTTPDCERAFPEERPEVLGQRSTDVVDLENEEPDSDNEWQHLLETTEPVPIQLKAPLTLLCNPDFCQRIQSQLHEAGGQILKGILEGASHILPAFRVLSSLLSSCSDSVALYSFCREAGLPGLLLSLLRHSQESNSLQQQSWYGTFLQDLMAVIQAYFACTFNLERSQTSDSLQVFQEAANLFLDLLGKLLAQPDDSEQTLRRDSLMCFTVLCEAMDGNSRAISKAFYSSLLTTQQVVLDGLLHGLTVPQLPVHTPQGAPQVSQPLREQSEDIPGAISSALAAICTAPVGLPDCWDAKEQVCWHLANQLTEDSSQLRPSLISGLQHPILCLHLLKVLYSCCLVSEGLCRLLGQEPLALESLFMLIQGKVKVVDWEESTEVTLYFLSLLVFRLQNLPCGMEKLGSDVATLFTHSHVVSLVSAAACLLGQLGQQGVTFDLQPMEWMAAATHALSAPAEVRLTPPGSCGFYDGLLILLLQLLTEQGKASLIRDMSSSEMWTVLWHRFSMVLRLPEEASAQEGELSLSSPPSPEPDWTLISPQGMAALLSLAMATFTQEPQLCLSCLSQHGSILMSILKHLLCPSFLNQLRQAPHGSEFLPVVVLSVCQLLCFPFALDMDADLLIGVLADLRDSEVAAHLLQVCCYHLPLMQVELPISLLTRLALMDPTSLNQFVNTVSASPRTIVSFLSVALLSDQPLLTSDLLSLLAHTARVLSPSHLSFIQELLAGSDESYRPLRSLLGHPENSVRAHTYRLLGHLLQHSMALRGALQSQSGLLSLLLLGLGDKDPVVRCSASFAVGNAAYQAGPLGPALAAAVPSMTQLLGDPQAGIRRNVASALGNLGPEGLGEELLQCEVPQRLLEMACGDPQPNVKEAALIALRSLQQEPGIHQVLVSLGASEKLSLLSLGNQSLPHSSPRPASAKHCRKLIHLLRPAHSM
# Method: as §1
# TEK = TEK (Homo sapiens (Human), UniProt Q02763); experiment: as above
# TEK, sequence (Q02763 23-1124): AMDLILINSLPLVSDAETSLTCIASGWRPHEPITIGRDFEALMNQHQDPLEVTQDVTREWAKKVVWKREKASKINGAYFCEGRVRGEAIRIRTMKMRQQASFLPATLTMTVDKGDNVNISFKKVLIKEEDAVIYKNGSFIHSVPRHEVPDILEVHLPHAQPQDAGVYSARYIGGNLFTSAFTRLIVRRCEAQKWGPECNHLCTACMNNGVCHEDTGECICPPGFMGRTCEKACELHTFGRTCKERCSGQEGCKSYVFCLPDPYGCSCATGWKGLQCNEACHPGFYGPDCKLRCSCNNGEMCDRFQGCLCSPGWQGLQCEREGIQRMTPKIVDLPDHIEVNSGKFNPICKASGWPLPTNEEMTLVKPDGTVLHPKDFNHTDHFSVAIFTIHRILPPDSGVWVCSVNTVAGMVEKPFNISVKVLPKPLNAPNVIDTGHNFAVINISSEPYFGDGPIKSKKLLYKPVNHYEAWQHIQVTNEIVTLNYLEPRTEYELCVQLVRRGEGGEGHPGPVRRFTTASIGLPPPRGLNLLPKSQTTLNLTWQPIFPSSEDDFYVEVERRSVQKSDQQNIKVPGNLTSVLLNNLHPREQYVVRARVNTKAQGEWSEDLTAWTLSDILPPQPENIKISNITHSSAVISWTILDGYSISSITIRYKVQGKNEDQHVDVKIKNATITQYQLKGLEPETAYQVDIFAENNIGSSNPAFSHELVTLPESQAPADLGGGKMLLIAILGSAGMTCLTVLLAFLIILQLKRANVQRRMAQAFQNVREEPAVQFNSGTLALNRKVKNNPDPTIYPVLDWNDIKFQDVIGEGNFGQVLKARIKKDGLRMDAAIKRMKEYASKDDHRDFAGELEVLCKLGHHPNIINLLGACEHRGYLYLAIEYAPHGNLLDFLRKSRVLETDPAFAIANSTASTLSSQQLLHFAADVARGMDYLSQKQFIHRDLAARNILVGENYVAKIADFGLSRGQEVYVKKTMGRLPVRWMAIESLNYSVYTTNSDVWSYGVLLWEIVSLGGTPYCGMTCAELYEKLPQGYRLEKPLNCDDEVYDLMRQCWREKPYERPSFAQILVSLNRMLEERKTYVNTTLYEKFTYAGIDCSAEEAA
# Method: as §1
# ULK2 = ULK2 (Homo sapiens (Human), UniProt Q8IYT8); experiment: as above
# Method: as §1
# [3] = Pharmacokinetics of CDD-3031 in mice, oral gavage; type: in vivo, mouse; settings: oral gavage 50 mg/kg, n = 3, mean ± SD
# Method: CDD-2330 was dissolved in 10% DMSO+0.5% methyl cellulose at 5 mg/mL. CDD-2330 was orally delivered at 50 mg/kg to mice (n=4). Blood samples were collected at 0, 0.25, 0.5, 1, 2, 4, 6, 8, and 24 h. Samples were analyzed by LC-MS, and the concentration of CDD-2330 was quantified with a standard curve (range: 0-10 μM). CDD-3031 was administered by oral gavage at a dose of 50 mg/kg. Blood samples were collected at […], 0.167, 0.25, 0.5, 1, 2, 4, 6, 8, and 24 h.
# [4] = Plasma ALT and AST in mice after a high dose (50 mg/kg); type: in vivo, mouse
# endometriotic lesions = experiment: Endometriosis mouse model, lesion efficacy; type: in vivo; settings: 10 mg/kg, excised lesions
# Method: FIGS. 17A-17F depict the robust efficacy of the inhibitory compounds of the present disclosure as NTRK2 inhibitors for inhibition of endometriotic lesion growth in mice utilizing CDD-3132 as an example. FIG. 17A provides a schematic overview of the experiment performed. FIGS. 17B-17C provide photographs showing excised lesions with administration of a control (FIG. 17B) or CDD-3132 (10 mg/kg/day) (FIG. 17C).
# In one aspect, the present disclosure provides exemplary data relating to the administration of NTRK2 inhibitors in a mouse model of endometriosis (FIG. 14). In certain embodiments, the recipient mouse is administered the NTRK2 inhibitor and/or controls on day 14 after intraperitoneal injection of endometrium of the donor mouse. In certain embodiments, the recipient mouse is sacrificed and quantitatively assessed on day 28.
# NTRK1 = NTRK1 (Homo sapiens (Human), UniProt P04629); experiment: NTRK1 inhibition (IC50); settings: read-out: NTRK1 IC50
# NTRK3 = NTRK3 (Homo sapiens (Human), UniProt Q16288); experiment: NTRK3 inhibition (IC50); settings: read-out: NTRK3 IC50
# [5] = Metabolic stability in human liver microsomes (HLM)
# [6] = plasma, 24 h after 50 mg/kg CDD-3031 by oral gavage, individual mice
structure (smiles),measurement,setting,value
"CN(Cc1ccn2ncc(C(N)=O)c2c1)C(=O)Nc1ccc(OC(F)(F)F)cc1 [CDD-3031, 5-((1-methyl-3-(4-(trifluoromethoxy)phenyl)ureido)methyl)pyrazolo[1,5-a]pyridine-3-carboxamide]",IC50,NTRK2 [1],11.9 nM
same,receptor occupancy at 1 µM,"CDKL1; average, read-out: CDKL1 kinase occupancy, Average (%)",8.23%
same,receptor occupancy at 1 µM,"CDKL1; replicate 1, read-out: CDKL1 kinase occupancy, Replicate 1 (%)",2.8%
same,receptor occupancy at 1 µM,"CDKL1; replicate 2, read-out: CDKL1 kinase occupancy, Replicate 2 (%)",13.7%
same,receptor occupancy at 1 µM,"CLK1; average, read-out: CLK1 kinase occupancy, Average (%)",4.92%
same,receptor occupancy at 1 µM,"CLK1; replicate 1, read-out: CLK1 kinase occupancy, Replicate 1 (%)",3.65%
same,receptor occupancy at 1 µM,"CLK1; replicate 2, read-out: CLK1 kinase occupancy, Replicate 2 (%)",6.2%
same,receptor occupancy at 1 µM,"CSNK1A1L; average, read-out: CSNK1A1L kinase occupancy, Average (%)",4.58%
same,receptor occupancy at 1 µM,"CSNK1A1L; replicate 1, read-out: CSNK1A1L kinase occupancy, Replicate 1 (%)",9.24%
same,receptor occupancy at 1 µM,"CSNK1A1L; replicate 2, read-out: CSNK1A1L kinase occupancy, Replicate 2 (%)",-0.08%
same,receptor occupancy at 1 µM,"DYRK1A; average, read-out: DYRK1A kinase occupancy, Average (%)",6.5%
same,receptor occupancy at 1 µM,"DYRK1A; replicate 1, read-out: DYRK1A kinase occupancy, Replicate 1 (%)",8.58%
same,receptor occupancy at 1 µM,"DYRK1A; replicate 2, read-out: DYRK1A kinase occupancy, Replicate 2 (%)",4.42%
same,receptor occupancy at 1 µM,"FLT3; average, read-out: FLT3 kinase occupancy, Average (%)",7.12%
same,receptor occupancy at 1 µM,"FLT3; replicate 1, read-out: FLT3 kinase occupancy, Replicate 1 (%)",-10.3%
same,receptor occupancy at 1 µM,"FLT3; replicate 2, read-out: FLT3 kinase occupancy, Replicate 2 (%)",24.6%
same,receptor occupancy at 1 µM,"MAP3K19; average, read-out: MAP3K19 kinase occupancy, Average (%)",13.3%
same,receptor occupancy at 1 µM,"MAP3K19; replicate 1, read-out: MAP3K19 kinase occupancy, Replicate 1 (%)",53.3%
same,receptor occupancy at 1 µM,"MAP3K19; replicate 2, read-out: MAP3K19 kinase occupancy, Replicate 2 (%)",-26.6%
same,receptor occupancy at 1 µM,"MKNK2; average, read-out: MKNK2 kinase occupancy, Average (%)",4.61%
same,receptor occupancy at 1 µM,"MKNK2; replicate 1, read-out: MKNK2 kinase occupancy, Replicate 1 (%)",7.96%
same,receptor occupancy at 1 µM,"MKNK2; replicate 2, read-out: MKNK2 kinase occupancy, Replicate 2 (%)",1.26%
same,receptor occupancy at 1 µM,"MUSK; average, read-out: MUSK kinase occupancy, Average (%)",19.8%
same,receptor occupancy at 1 µM,"MUSK; replicate 1, read-out: MUSK kinase occupancy, Replicate 1 (%)",17.5%
same,receptor occupancy at 1 µM,"MUSK; replicate 2, read-out: MUSK kinase occupancy, Replicate 2 (%)",22.2%
same,receptor occupancy at 1 µM,"NTRK2 [2]; average, read-out: NTRK2 kinase occupancy, Average (%)",92.9%
same,receptor occupancy at 1 µM,"NTRK2 [2]; replicate 1, read-out: NTRK2 kinase occupancy, Replicate 1 (%)",94.6%
same,receptor occupancy at 1 µM,"NTRK2 [2]; replicate 2, read-out: NTRK2 kinase occupancy, Replicate 2 (%)",91.2%
same,receptor occupancy at 1 µM,"SGK1; average, read-out: SGK1 kinase occupancy, Average (%)",4.31%
same,receptor occupancy at 1 µM,"SGK1; replicate 1, read-out: SGK1 kinase occupancy, Replicate 1 (%)",1.93%
same,receptor occupancy at 1 µM,"SGK1; replicate 2, read-out: SGK1 kinase occupancy, Replicate 2 (%)",6.69%
same,receptor occupancy at 1 µM,"STK36; average, read-out: STK36 kinase occupancy, Average (%)",4.82%
same,receptor occupancy at 1 µM,"STK36; replicate 1, read-out: STK36 kinase occupancy, Replicate 1 (%)",-3.75%
same,receptor occupancy at 1 µM,"STK36; replicate 2, read-out: STK36 kinase occupancy, Replicate 2 (%)",13.4%
same,receptor occupancy at 1 µM,"TEK; average, read-out: TEK kinase occupancy, Average (%)",10.2%
same,receptor occupancy at 1 µM,"TEK; replicate 1, read-out: TEK kinase occupancy, Replicate 1 (%)",13.1%
same,receptor occupancy at 1 µM,"TEK; replicate 2, read-out: TEK kinase occupancy, Replicate 2 (%)",7.34%
same,receptor occupancy at 1 µM,"ULK2; average, read-out: ULK2 kinase occupancy, Average (%)",4.48%
same,receptor occupancy at 1 µM,"ULK2; replicate 1, read-out: ULK2 kinase occupancy, Replicate 1 (%)",-5.12%
same,receptor occupancy at 1 µM,"ULK2; replicate 2, read-out: ULK2 kinase occupancy, Replicate 2 (%)",14.1%
same,AUC(0-inf),"[3]; mouse, blood",478 ± 87.8 µM·h
same,AUC(0-t),"[3]; mouse, blood",418 ± 62.1 µM·h
same,Cmax,"[3]; mouse, blood",37.1 ± 4.88 µM
same,Tmax,"[3]; mouse, blood",1.17 ± 0.76 h
same,half-life,"[3]; mouse, blood",8.03 ± 1.25 h
same,MRT last,"[3]; mouse, blood, read-out: MRT0-t",7.23 ± 0.38 h
same,MRT inf,"[3]; mouse, blood, read-out: MRT0-∞",10.7 ± 1.52 h
same,CL/F,[3],0.11 ± 0.02 mg/(hr*μmol/L)/kg
same,Vd/F,[3],1.22 ± 0.05 mg/(μmol/L)/kg
same,potential liver and other tissue toxicity,"[4]; high dose, 50 mg/kg",minimal effects
same,ALT,[4]; [6],35.89 IU/L and 24.49 IU/L and 52.86 IU/L and 48.18 IU/L
same,AST,[4]; [6],86.81 IU/L and 64.53 IU/L and 68.33 IU/L and 72.84 IU/L
same,endometriotic lesion growth,endometriotic lesions,inhibiting endometriotic lesion growth
same,IC50,NTRK1,153 nM
same,IC50,NTRK3,25.3 nM
same,half-life,[5],> 16.7 h
